This passage reports Activity and IC50 results from ChEMBL document CHEMBL4400561, “Isolation, structural elucidation, and insights into the anti-inflammatory effects of triterpene saponins from the leaves of Stauntonia hexaphylla” (Bioorg Med Chem Lett, 2019).

The IC50 is the midpoint of a concentration-inhibition curve.

The subject of data set [1] is RAW264.7. As to the kind of experiment: Cytotoxicity against mouse RAW264.7 cells at anti-inflammatory IC50 after 19 hrs by MTT assay. In kind it is cell-based. As to conditions: raw264.7, 19 h. For orientation: Tetrazolium assays rely on reduction of a dye to a coloured formazan, in cell work by metabolically active cells.
The test system of data set [2] is RAW264.7. Description: Anti-inflammatory activity in mouse RAW264.7 cells assessed as inhibition of LPS-induced NO production preincubated for 1 hr followed by LPS-stimulation and measured after 18 hrs by Griess reagent-based assay. In kind it is functional, cell-based.

With `C=C1CC[C@]2(C(=O)O[C@@H]3O[C@H](CO[C@@H]4O[C@H](CO)[C@@H](O)[C@H](O)[C@H]4O)[C@@H](O)[C@H](O)[C@H]3O)CC[C@]3(C)C(=CC[C@@H]4[C@@]5(C)CC[C@H](O)C(C)(C)[C@@H]5CC[C@]43C)[C@@H]2C1`, the Activity entry in the data set with RAW264.7 [1] is “Non-Toxic”. Besides, in the data set on RAW264.7 [2], the IC50 is over 50 µM.

As for `CC1(C)CC[C@]2(C(=O)O[C@@H]3O[C@H](CO[C@@H]4O[C@H](CO)[C@@H](O)[C@H](O)[C@H]4O)[C@@H](O)[C@H](O)[C@H]3O)CC[C@]3(C)C(=CC[C@@H]4[C@@]5(C)CC[C@H](O)[C@@](C)(CO)[C@@H]5CC[C@]43C)[C@@H]2C1` [DIPSACUSSAPONIN A], the Activity entry in the data set with RAW264.7 [1] is recorded as “Non-Toxic”. The concentration for half-maximal inhibition (IC50) with RAW264.7 [2] was over 50 µM.

For the compound `C=C1CC[C@]2(C(=O)O[C@@H]3O[C@H](CO[C@@H]4O[C@H](CO)[C@@H](O)[C@H](O)[C@H]4O)[C@@H](O)[C@H](O)[C@H]3O)CC[C@]3(C)C(=CC[C@@H]4[C@@]5(C)CC[C@H](O)[C@@](C)(CO)[C@@H]5CC[C@]43C)[C@@H]2C1`, the Activity entry in the data set on RAW264.7 [1] is “Non-Toxic”. Moreover, in the data set with RAW264.7 [2], the IC50 is over 50 µM.

On to `C=C1CC[C@]2(C(=O)O[C@@H]3O[C@H](CO[C@@H]4O[C@H](CO)[C@@H](O[C@@H]5O[C@@H](C)[C@H](O)[C@@H](O)[C@H]5O)[C@H](O)[C@H]4O)[C@@H](O)[C@H](O)[C@H]3O)CC[C@]3(C)C(=CC[C@@H]4[C@@]5(C)CC[C@H](O[C@@H]6OC[C@H](O)[C@H](O)[C@H]6O)[C@@](C)(CO)[C@@H]5CC[C@]43C)[C@@H]2C1`, for which the Activity entry in the data set on RAW264.7 [1] is listed as “Non-Toxic”. Moreover, the IC50 in the data set with RAW264.7 [2] is over 50 µM.

`CC1(C)CC[C@]2(C(=O)O[C@@H]3O[C@H](CO)[C@@H](O)[C@H](O)[C@H]3O)CC[C@]3(C)C(=CC[C@@H]4[C@@]5(C)CC[C@H](O)C(C)(C)[C@@H]5CC[C@]43C)[C@@H]2C1`: the Activity entry in the data set on RAW264.7 [1] is on record as “Non-Toxic”. Moreover, in the data set on RAW264.7 [2], the IC50 was over 50 µM.

With `CC1(C)CC[C@]2(C(=O)O[C@@H]3O[C@H](CO[C@@H]4O[C@H](CO)[C@@H](O)[C@H](O)[C@H]4O)[C@@H](O)[C@H](O)[C@H]3O)CC[C@]3(C)C(=CC[C@@H]4[C@@]5(C)CC[C@H](O[C@@H]6OC[C@H](O)[C@H](O)[C@H]6O)C(C)(C)[C@@H]5CC[C@]43C)[C@@H]2C1`, the Activity entry in the data set on RAW264.7 [1] is given as “Non-Toxic”. For the same compound, the concentration for half-maximal inhibition (IC50) in the data set with RAW264.7 [2] was over 50 µM.

For the compound `C=C1CC[C@]2(C(=O)O)CC[C@]3(C)C(=CC[C@@H]4[C@@]5(C)CC[C@H](O[C@@H]6OC[C@H](O)[C@H](O)[C@H]6O[C@@H]6O[C@H](CO)[C@@H](O)[C@H](O)[C@H]6O)C(C)(C)[C@@H]5CC[C@]43C)[C@@H]2C1`, in the data set with RAW264.7 [1], the Activity result is listed as “Non-Toxic”. For the same compound, the IC50 with RAW264.7 [2] was determined as 16.6 µM.

As for `C[C@@H]1C[C@H]2[C@@H]3CCC4=CC(=O)C=C[C@]4(C)[C@@]3(F)[C@@H](O)C[C@]2(C)[C@@]1(O)C(=O)CO` [DEXAMETHASONE], the Activity entry with RAW264.7 [1] is reported as “Non-Toxic”. The IC50 with RAW264.7 [2] is 0.13 µM.

For `CC1(C)CC[C@]2(C(=O)O[C@@H]3O[C@H](CO[C@@H]4O[C@H](CO)[C@@H](O)[C@H](O)[C@H]4O)[C@@H](O)[C@H](O)[C@H]3O)CC[C@]3(C)C(=CC[C@@H]4[C@@]5(C)CC[C@H](O)C(C)(C)[C@@H]5CC[C@]43C)[C@@H]2C1`, the Activity result with RAW264.7 [1] was “Non-Toxic”. Besides, the half-inhibitory concentration (IC50) with RAW264.7 [2] is over 50 µM.

In the case of `CC1(C)CC[C@]2(C(=O)O[C@@H]3O[C@H](CO[C@@H]4O[C@H](CO)[C@@H](O)[C@H](O)[C@H]4O)[C@@H](O)[C@H](O)[C@H]3O)CC[C@]3(C)C(=CC[C@@H]4[C@@]5(C)CC[C@H](O[C@@H]6OC[C@H](O)[C@H](O)[C@H]6O[C@@H]6O[C@H](CO)[C@@H](O)[C@H](O)[C@H]6O)C(C)(C)[C@@H]5CC[C@]43C)[C@@H]2C1`, the Activity entry in the data set on RAW264.7 [1] is “Non-Toxic”. Also, the IC50 in the data set with RAW264.7 [2] was over 50 µM.

With `C=C1CC[C@]2(C(=O)O[C@@H]3O[C@H](CO[C@@H]4O[C@H](CO)[C@@H](O[C@@H]5O[C@@H](C)[C@H](O)[C@@H](O)[C@H]5O)[C@H](O)[C@H]4O)[C@@H](O)[C@H](O)[C@H]3O)CC[C@]3(C)C(=CC[C@@H]4[C@@]5(C)CC[C@H](O)C(C)(C)[C@@H]5CC[C@]43C)[C@@H]2C1`, the Activity entry with RAW264.7 [1] was “Non-Toxic”. The concentration for half-maximal inhibition (IC50) in the data set on RAW264.7 [2] was over 50 µM.

Consider `CC1(C)CC[C@]2(C(=O)O[C@@H]3O[C@H](CO[C@@H]4O[C@H](CO)[C@@H](O)[C@H](O)[C@H]4O)[C@@H](O)[C@H](O)[C@H]3O)CC[C@]3(C)C(=CC[C@@H]4[C@@]5(C)CC[C@H](O[C@@H]6OC[C@H](O)[C@H](O[C@@H]7O[C@H](CO)[C@@H](O)[C@H](O)[C@H]7O)[C@H]6O)C(C)(C)[C@@H]5CC[C@]43C)[C@@H]2C1`, for which, in the data set on RAW264.7 [1], the Activity result was “Non-Toxic”. For the same compound, in the data set on RAW264.7 [2], the IC50 is over 50 µM.

For `CC1(C)CC[C@]2(C(=O)O[C@@H]3O[C@H](CO[C@@H]4O[C@H](CO)[C@@H](O)[C@H](O)[C@H]4O)[C@@H](O)[C@H](O)[C@H]3O)CC[C@]3(C)C(=CC[C@@H]4[C@@]5(C)CC[C@H](O[C@@H]6OC[C@H](O)[C@H](O)[C@H]6O[C@@H]6O[C@H](CO)[C@@H](O)[C@H](O)[C@H]6O)[C@@](C)(CO)[C@@H]5CC[C@]43C)[C@@H]2C1`, the Activity result in the data set on RAW264.7 [1] is “Non-Toxic”. The IC50 with RAW264.7 [2] is over 50 µM.

With `CC1(C)CC[C@]2(C(=O)O[C@@H]3O[C@H](CO[C@@H]4O[C@H](CO)[C@@H](O)[C@H](O)[C@H]4O)[C@@H](O)[C@H](O)[C@H]3O)CC[C@]3(C)C(=CC[C@@H]4[C@@]5(C)CC[C@H](O[C@@H]6OC[C@H](O)[C@H](O)[C@H]6O)[C@@](C)(CO)[C@@H]5CC[C@]43C)[C@@H]2C1`, the Activity entry in the data set on RAW264.7 [1] is reported as “Non-Toxic”. Also, in the data set with RAW264.7 [2], the half-inhibitory concentration (IC50) is over 50 µM.

As to `C[C@@H]1O[C@@H](O[C@H]2[C@H](O[C@H]3CC[C@@]4(C)[C@@H](CC[C@]5(C)[C@@H]4CC=C4[C@@H]6CC(C)(C)CC[C@]6(C(=O)O[C@@H]6O[C@H](CO[C@@H]7O[C@H](CO)[C@@H](O[C@@H]8O[C@@H](C)[C@H](O)[C@@H](O)[C@H]8O)[C@H](O)[C@H]7O)[C@@H](O)[C@H](O)[C@H]6O)CC[C@]45C)[C@]3(C)CO)OC[C@H](O)[C@@H]2O)[C@H](O)[C@H](O)[C@H]1O` [KALOPANAXSAPONIN B], the Activity result in the data set with RAW264.7 [1] was “Non-Toxic”. Besides, the IC50 with RAW264.7 [2] is over 50 µM.

For `C=C1CC[C@]2(C(=O)O[C@@H]3O[C@H](CO[C@@H]4O[C@H](CO)[C@@H](O)[C@H](O)[C@H]4O)[C@@H](O)[C@H](O)[C@H]3O)CC[C@]3(C)C(=CC[C@@H]4[C@@]5(C)CC[C@H](O[C@@H]6OC[C@H](O)[C@H](O)[C@H]6O[C@@H]6O[C@H](CO)[C@@H](O)[C@H](O)[C@H]6O)C(C)(C)[C@@H]5CC[C@]43C)[C@@H]2C1`, the Activity entry with RAW264.7 [1] is listed as “Non-Toxic”. Moreover, the IC50 in the data set with RAW264.7 [2] is over 50 µM.

With `CC1(C)CC[C@]2(C(=O)O)CC[C@]3(C)C(=CC[C@@H]4[C@@]5(C)CC[C@H](O)[C@@](C)(CO[C@@H]6O[C@H](CO[C@@H]7O[C@H](CO)[C@@H](O)[C@H](O)[C@H]7O)[C@@H](O)[C@H](O)[C@H]6O)[C@@H]5CC[C@]43C)[C@@H]2C1`, the Activity entry in the data set on RAW264.7 [1] is on record as “Non-Toxic”. Moreover, the IC50 with RAW264.7 [2] was over 50 µM.

Turning to `C[C@@H]1O[C@@H](O[C@H]2[C@H](O[C@H]3CC[C@]4(C)[C@H]5CC=C6[C@@H]7CC(C)(C)CC[C@]7(C(=O)O)CC[C@@]6(C)[C@]5(C)CC[C@H]4C3(C)C)OC[C@H](O)[C@@H]2O[C@@H]2O[C@H](CO)[C@@H](O)[C@H](O)[C@H]2O)[C@H](O)[C@H](O)[C@H]1O`, the Activity result in the data set on RAW264.7 [1] is “Non-Toxic”. The concentration for half-maximal inhibition (IC50) in the data set with RAW264.7 [2] was over 50 µM.

Turning to `C[C@@H]1O[C@@H](O[C@H]2[C@H](O)[C@@H](O)[C@H](OC[C@H]3O[C@@H](OC(=O)[C@]45CCC(C)(C)C[C@H]4C4=CC[C@@H]6[C@@]7(C)CC[C@H](O)[C@@](C)(CO)[C@@H]7CC[C@@]6(C)[C@]4(C)CC5)[C@H](O)[C@@H](O)[C@@H]3O)O[C@@H]2CO)[C@H](O)[C@H](O)[C@H]1O` [KIZUTA CIRENSENOSIDE O SAPONIN K3], the Activity result in the data set on RAW264.7 [1] is listed as “Non-Toxic”. Moreover, the IC50 with RAW264.7 [2] was over 50 µM.

With `C[C@@H]1O[C@@H](O[C@H]2[C@H](O)[C@@H](O)[C@H](OC[C@H]3O[C@@H](OC(=O)[C@]45CCC(C)(C)C[C@H]4C4=CC[C@@H]6[C@@]7(C)CC[C@H](O[C@@H]8OC[C@H](O)[C@H](O)[C@H]8O)[C@@](C)(CO)[C@@H]7CC[C@@]6(C)[C@]4(C)CC5)[C@H](O)[C@@H](O)[C@@H]3O)O[C@@H]2CO)[C@H](O)[C@H](O)[C@H]1O` [CAULOSIDE D], the Activity entry with RAW264.7 [1] is given as “Non-Toxic”. In addition, in the data set with RAW264.7 [2], the half-inhibitory concentration (IC50) is over 50 µM.

Take `CC1(C)CC[C@]2(C(=O)O)CC[C@]3(C)C(=CC[C@@H]4[C@@]5(C)CC[C@H](O)[C@@](C)(CO[C@@H]6O[C@H](CO)[C@@H](O)[C@H](O)[C@H]6O)[C@@H]5CC[C@]43C)[C@@H]2C1`: the Activity result in the data set with RAW264.7 [1] was “Non-Toxic”. Moreover, in the data set on RAW264.7 [2], the half-inhibitory concentration (IC50) is over 50 µM.

With `C[C@@H]1O[C@@H](O[C@H]2[C@H](O)[C@@H](O)[C@H](OC[C@H]3O[C@@H](OC(=O)[C@]45CCC(C)(C)C[C@H]4C4=CC[C@@H]6[C@@]7(C)CC[C@H](O)C(C)(C)[C@@H]7CC[C@@]6(C)[C@]4(C)CC5)[C@H](O)[C@@H](O)[C@@H]3O)O[C@@H]2CO)[C@H](O)[C@H](O)[C@H]1O` [CIRENSENOSIDE O], the Activity result in the data set with RAW264.7 [1] is reported as “Non-Toxic”. Also, in the data set on RAW264.7 [2], the IC50 was over 50 µM.
